Target: T1, LXRα (Homo sapiens, UniProt Q13133)
T1 construct: human LXRalpha (amino acid 205-447); made in house; host or cells: E. coli
T1 sequence (Q13133 205-447): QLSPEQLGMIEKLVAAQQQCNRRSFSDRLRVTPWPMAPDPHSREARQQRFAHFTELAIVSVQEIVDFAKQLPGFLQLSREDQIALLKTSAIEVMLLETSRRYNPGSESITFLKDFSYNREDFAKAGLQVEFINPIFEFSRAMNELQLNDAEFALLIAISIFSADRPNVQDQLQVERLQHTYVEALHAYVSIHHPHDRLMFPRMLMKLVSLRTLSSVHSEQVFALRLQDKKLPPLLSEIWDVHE
Assay: Co-activator recruitment assay (LXR-LBD / SRC-1 peptide, time-resolved fluorescence)
Type: biochemical
Details: coactivator recruitment assays
From the text: The Ligand Binding Domain (LBD) of human LXRalpha (amino acid 205-447) and LXRbeta (amino acid 216-461) was produced by recombinant techniques in E. coli. A fragment of the human Steroid Receptor Co-Activator-1 (SRC-1) was produced as a synthetic peptide. An anti-6×His-antibody coupled with Europium (Eu^3+) was used to recognize the His-tag on the LXR-LBD and Allophycocyanin (APC) coupled to streptavidin was used to recognize the biotinylated SRC-1. Agonist binding to LXRalpha or LXRbeta enhances the affinity of LXR towards SRC-1 and thereby brings Eu^3+ and APC in close proximity. Eu^3+ is excited at 337 nm and emitts light at 620 nm. This emission, when in close proximity, excites APC to emit light at 665 nm.
Compounds (10 mM) in DMSO were diluted (⅓) in DMSO in 10 concentrations. […]
The assay mix has the following final concentrations; LXRalpha mix: 0.06 μg/mL Eu-labelled anti-6×His Ab, […] Streptavidin APC, 30 nM SRC-1 peptide and 0.9 μg/mL LXRalpha in buffer and LXRbeta mix; 0.06 μg/mL Eu-labelled anti-6×His Ab, 1.15 μg/1 mL Streptavidin APC, 90 nM SRC-1 peptide and 0.2 μg/mL LXRbeta in buffer. Time-resolved fluorescence readings were done in a Wallac Victor reader at 665 nm followed by reading at 615 nm. […]

EC50	Compound
75 nM	O=C1C(Nc2ccc(OC(F)F)cc2)=C(c2ccccc2)S(=O)(=O)N1Cc1ccc(OC(F)F)cc1 [Example 14, 2-[4-(Difluoromethoxy)benzyl]-4-{[4-(difluoromethoxy)phenyl]amino}-5-phenylisothiazol-3(2H)-one 1,1-dioxide]
270 nM	COCCN1C(=O)C(Nc2ccc3oc(C(C)=O)cc3c2)=C(c2ccccc2)S1(=O)=O [Example 13, 4-[(2-Acetyl-1-benzofuran-5-yl)amino]-2-(2-methoxyethyl)-5-phenylisothiazol-3(2H)-one 1,1-dioxide]

Source: patent publication US7582629B2, “Derivatives of isothiazol-3(2H)-one 1,1-dioxides as liver X receptor modulators” (AstraZeneca AB, priority 2005, dated 2009)
